In patent US20210302366A1, “Method for Pathogen Detection” (priority 2020, published 2021):
In brackets after ≈: the same amount, converted by molar mass.

Key:
[1] = test system: Pseudomonas aeruginosa; test: pathogen detection chip (differential drain current) with agar plating, Pseudomonas aeruginosa; type: cell-based; conditions: for biological sample resistant or sensitive to the interacting agent: from electrical signal pattern and CFU; for trend of number of colony-forming unit (CFU) from agar plating: over the course of culturing
Description: (§1) The drain voltage Vds may cause a drain current Ids to be measured as the electrical signal. In some embodiments, during the course of culturing the biological sample 207A, metabolites and/or the ions of the biological sample 207A generated due to the interaction of which with the interacting agents 207B may cause the front gate voltage Vgs-fg to change and thus the change of drain voltage Vds as well as the measured drain current Ids. By analyzing the electrical signal of the differential drain current ΔIds, several characteristics of the biological sample 207A can be determined within a short time frame and at a relative low sample concentration. In some embodiments, the sensor 20 may occupies a footprint of 5 μm by 5 μm. A bias of +1.8V can be applied to the first gate 209 and a bias of −0.5V can be applied to the second gate 209′ during the measurement of drain current Ids.
(§2) Two approaches can be used to measure the differential drain current ΔIds. One approach is to subtract the drain current Ids measured from a control group of the sensor 20 where no biological sample is introduced into the culturing medium 207 from the drain current Ids measured from an experimental group of the sensor 20 where biological sample is introduced into the culturing medium 207 during the course of culturing. The other approach is to subtract the initial drain current Ids (e.g. at t=0) from the drain current Ids measured from an experimental group of the sensor 20 where biological sample is introduced into the culturing medium 207 during the course of culturing. The latter approach can be adopted for real-time pathogen detection, and the former approach can be adopted in a more systematic study where the concentration of biological sample and the pH value of the culturing medium 207 can be recorded simultaneously.
(§3) To prepare the culturing medium, 200 μL of non-buffered LB broth having predetermined dosages (including zero dosage) of interacting agent was inoculated with predetermined concentration of Pseudomonas aeruginosa and cultured at a temperature of 37° C. The sample was subjected to the pathogen detection using the pathogen detection chip and sensor described herein with a front gate voltage of +1.8V and a back gate voltage of −0.5V for drain current Ids measurement at predetermined time points (e.g., at each hour). The differential drain current ΔIds can be determined using the two approaches previously described, including (1) subtracting the drain current Ids measured from a control group from the drain current Ids measured from an experimental group during the course of culturing; and (2) subtracting the initial drain current Ids (e.g. at t=0) from the drain current Ids measured from an experimental group during the course of culturing. When the former approach is taken, the concentration of biological sample can be determined by agar plating under the same environmental condition.
Sample preparation and measurement condition can be referred to those in Example 3A and are not repeated here for brevity. […] For example, in Example 3B, a differential drain current ΔIds of about 0.16 μA can be identified as a blip in the electrical signal.

[2] = test system: Staphylococcus aureus; test: pathogen detection chip (differential drain current) with agar plating, Staphylococcus aureus; type: cell-based; conditions: for blips/sub-blips identified in the electrical signal: first 8 hours of culturing; for biological sample resistant or sensitive to the interacting agent: from electrical signal pattern and CFU; for trend of number of colony-forming unit (CFU) from agar plating: over the course of culturing
Description: as §1, §2
as §3, with “Staphylococcus aureus” for “Pseudomonas aeruginosa”
Sample preparation and measurement condition can be referred to those in Example 2A and are not repeated here for brevity.

[3] = test system: Escherichia coli K12; test: minimum inhibitory concentration (MIC) test; type: cell-based
[4] = test system: Escherichia coli; test: pathogen detection chip (differential drain current) with agar plating, Escherichia coli; type: cell-based; conditions: for differential drain current ΔIds, local maximum: 2nd hour of culturing
Description: as §1, §2
as §3, with “Escherichia coli” for “Pseudomonas aeruginosa”
Sample preparation and measurement condition can be referred to those in Example 4A and are not repeated here for brevity. […] For example, in Example 4B, a differential drain current ΔIds of greater than 0.07 μA (e.g., about 0.08 μA) can be identified as a blip in the electrical signal. In addition, a differential drain current ΔIds of about 0.04 μA can be identified as a sub-blip at the 6th hour. As previously described, electrical signal lower than 0.03 μA is not considered as a blip or a sub-blip in some of the embodiments.

[5] = test system: Escherichia coli pku57; test: microbe, parasite or virus in culture
Description: To prepare the culturing medium, 200 μL of non-buffered LB broth having predetermined dosages (including zero dosage) of interacting agent was inoculated with predetermined concentration of Escherichia coli and cultured at a temperature of 37° C. The sample was subjected to the pathogen detection using the pathogen detection chip and sensor described herein with a front gate voltage of +1.8V and a back gate voltage of −0.5V for drain current Ids measurement at predetermined time points (e.g., at each hour). The differential drain current ΔIds can be determined using the two approaches previously described, including (1) subtracting the drain current Ids measured from a control group from the drain current Ids measured from an experimental group during the course of culturing; and (2) subtracting the initial drain current Ids (e.g. at t=0) from the drain current Ids measured from an experimental group during the course of culturing. When the former approach is taken, the concentration of biological sample can be determined by agar plating under the same environmental condition.

[6] = test system: Klebsiella pneumoniae; test: pathogen detection chip (differential drain current) with agar plating, Klebsiella pneumoniae; type: cell-based
Description: The drain voltage Vds may cause a drain current Ids to be measured as the electrical signal. In some embodiments, during the course of culturing the biological sample 207A, metabolites and/or the ions of the biological sample 207A generated due to the interaction of which with the interacting agents 207B may cause the front gate voltage Vgs-fg to change and thus the change of drain voltage Vds as well as the measured drain current Ids. By analyzing the electrical signal of the differential drain current ΔIds, several characteristics of the biological sample 207A can be determined within a short time frame and at a relative low sample concentration. […] A bias of +1.8V can be applied to the first gate 209 and a bias of −0.5V can be applied to the second gate 209′ during the measurement of drain current Ids.
To prepare the culturing medium, 200 μL of non-buffered LB broth having predetermined dosages (including zero dosage) of interacting agent was inoculated with predetermined concentration of Klebsiella pneumoniae and cultured at a temperature of 37° C. […]

[7] = from electrical signal pattern and CFU
[8] = throughout the first 9 hour of culturing

## CC1(C)S[C@@H]2[C@H](NC(=O)[C@H](N)c3ccccc3)C(=O)N2[C@H]1C(=O)O [Ampicillin]
[1]; 1st hour of culturing
  differential drain current ΔIds, blip: about 0.16 μA
[1]
  biological sample resistant or sensitive to the interacting agent: resistant
  trend of number of colony-forming unit (CFU) from agar plating: monotonic increasing
[2]
  blips/sub-blips identified in the electrical signal: no blips or sub-blips (a differential drain current ΔIds showing local maximum lower than 0.03 μA is not identified as a blip or a sub-blip)
  biological sample resistant or sensitive to the interacting agent: sensitive
  trend of number of colony-forming unit (CFU) from agar plating: monotonic decreasing
[2]; throughout the first 8 hour of culturing
  differential drain current ΔIds: lower than 0.03 μA

## NC[C@H]1O[C@H](O[C@H]2[C@H](O)[C@@H](O[C@H]3O[C@H](CO)[C@@H](O)[C@H](N)[C@H]3O)[C@H](N)C[C@@H]2N)[C@H](O)[C@@H](O)[C@@H]1O [Kanamycin]
[3]
  MIC: 25 µg/mL (≈ 51.6 µM)
[4]
  differential drain current ΔIds, local maximum: about 0.08 μA
[4]; 6th hour of culturing
  differential drain current ΔIds, sub-blip: about 0.04 μA
[5]
  MIC: < 50 µg/mL

## CN[C@@H]1[C@H](O)[C@H](NC)[C@H]2O[C@@]3(O)C(=O)C[C@@H](C)O[C@H]3O[C@@H]2[C@H]1O [Spectinomycin]
[4]
  differential drain current ΔIds, local maximum: about 0.05 μA
[4]; [7]
  biological sample resistant or sensitive to the interacting agent: sensitive
[4]; over the course of culturing
  trend of number of colony-forming unit (CFU) from agar plating: neither increasing or decreasing
[4]; [8]
  differential drain current ΔIds: lower than 0.07 μA

## Gentamicin
[1]; first 9 hour of culturing
  blips/sub-blips identified in the electrical signal: no blips or sub-blips (a differential drain current ΔIds showing local maximum lower than 0.03 μA is not identified as a blip or a sub-blip)
[1]
  biological sample resistant or sensitive to the interacting agent: sensitive
  trend of number of colony-forming unit (CFU) from agar plating: monotonic decreasing
[1]; [8]
  differential drain current ΔIds: lower than 0.03 μA
[6]; 3rd hour of culturing, LB broth, 37° C.
  differential drain current ΔIds, blip: about 0.15 μA
[6]; [7]
  biological sample resistant or sensitive to the interacting agent: resistant
[6]; over the course of culturing
  trend of number of colony-forming unit (CFU) from agar plating: monotonic increasing
[2]
  blips/sub-blips identified in the electrical signal: a blip at the 2nd hour and a sub-blip at the 5th hour
  biological sample resistant or sensitive to the interacting agent: resistant
  trend of number of colony-forming unit (CFU) from agar plating: monotonic increasing
